Laboratory results published in patent US6984659B2, “2-pyrrolidinone derivatives substituted at position 4 for reducing the extracellular glutamate level” (priority 1997, dated 2006).
“Also recorded” adds a separate entry of the source. Where a name gives a salt, the structure may show the parent alone.

Experiments:
[1] = test system: ischemia-induced [^3H]-Glu release; experiment: in vitro ischemia model: ischemia-induced [^3H]-Glu release from [^3H]-Gln-loaded hippocampal slices; format: cell-based, rat
Protocol: Rat hippocampus slices 350 μm thick were incubated in 3 ml of medium at 37° C. for 60 minutes. The medium contained 2 μM [^3H]-Gln to label the endogenous Gln pool. The slices then synthesized Glu. The slices were washed and then exposed to superfusion with a buffer for 50 minutes. At 5-minute intervals, [^3H]-Glu was extracted by anion exchange chromatography from a total of 15 superfusion samples and was measured by liquid scintillation counting. The fractional rates of [^3H]-Glu release were calculated from the [^3H]-Glu extracted from the superfusion samples and from the tissue slices after the superfusion.
The model of endogenously produced [^3H]-Glu was likewise used to generate ischemic conditions in vitro. To make a slice “quasi ischemic”, oxygen and glucose were replaced by nitrogen and sucrose during the superfusion. Sucrose was used in place of […] glucose in order to maintain the osmolarity of the superfusion fluid. It is known that sucrose cannot be cleaved in vitro to glucose and fructose. Unlike the tests in which the [^3H]-Glu release was induced electrically, and in order to simulate an ischemia as well as possible, the [^3H]-Glu release was carried out during the incubation and superfusion at 37° C.
Slices of 350 μm thickness were incubated at 37° C. for 60 min in 3 ml medium containing 2 μM [^3H]-Gln in order to label endogenous Gln pools. These slices subsequently were synthesizing Glu. The slices were washed and then superfused for 50 min with buffer. [^3H]-Glu was extracted from 15 5-min-superfusion samples and from the slices by anion-exchange chromatography and measured by liquid scintillation counting. Fractional rates of [^3H]-Glu release were calculated from extracted [^3H]-Glu in the superfusion samples and in the tissue slices obtained after superfusion.
To reproduce in vitro ischemic conditions the model of endogenously formed [^3H]-Glu was also used. To make a slice “quasi-ischemic”, oxygen was replaced by nitrogen and glucose was replaced by sucrose during superfusion. Sucrose was used instead of glucose in order to maintain the osmolarity of the superfusion fluid without being cleaved into glucose and fructose in vitro. At variance to the experiments on electrically evoked [^3H]-Glu release and in order to mimic ischemia as close as possible the experiments on ischemia-induced [^3H]-Glu release were performed at 37° C. throughout incubation and superfusion.
To assess the potency of glibenclamide concentration-inhibition curves of GBP-L on ischemia-induced [^3H]-Glu efflux were obtained in the absence and presence of 0.1 μM glibenclamide (see Jehle et al. 2000).

[2] = test system: electrically evoked release of Glu; experiment: electrically evoked [^3H]-Glu release from [^3H]-Gln-loaded hippocampus slices; format: cell-based, rat
[3] = test system: mitochondrial KATP channels; settings: for comparison; cited from earlier work
[4] = test system: potassium-evoked release of [^3H]-noradrenaline; settings: cited from earlier work

For `O=C(O)[C@@H]1CN[C@@H](C(=O)O)C1` (relative stereo) [PDC, L-trans-pyrrolidine-2,4-dicarboxylate], the “response to the ischemia ([^3H]-Glu release)” value ([1]; 100 μM) was “noticeably reduced; also recorded: diminishes the response to ischemia markedly”.
In the case of `NC1=N[C@H](O)[C@H]2[C@H]3O[C@]4(O)O[C@@H]([C@@H](O)[C@@]2(N1)[C@@H]4O)[C@]3(O)CO` [TTX, tetrodotoxin, reference compound], the “electrically evoked release of Glu (in words)” value [2] is reported as “partly inhibited; also recorded: widely inhibited”.
For `CC1=NS(=O)(=O)c2cc(Cl)ccc2N1` [diazoxide], the IC50 [3] is listed as 50 µM.
For `COc1ccc(Cl)cc1C(=O)NCCc1ccc(S(=O)(=O)NC(=O)NC2CCCCC2)cc1` [glibenclamide], the pA2 value ([1]; glibenclamide 0.1 μM against GBP-L concentration-response curve) was 8.28 and the “influence on the effect of GBP-L on ischemia-induced [^3H]-Glu release” value ([1]; glibenclamide 1 μM) was “completely abolished”.
With `Nc1cc(N2CCCCC2)nc(N)[n+]1OS(=O)(=O)[O-]` [minoxidil sulfate] the “ischemia-induced [^3H]-Glu efflux (in words)” value ([1]; 10 μM) was “significantly reduced”.
In the case of `CC(C)C[C@H](CN)CC(=O)O` [pregabalin], the “potassium-evoked release of [^3H]-noradrenaline (in words)” value [4] is given as “inhibitory effects”.
